Holding throughout (format): in vivo
In assay [1] the test system is cardiac muscle mitochondria. Put plainly: Glutathione content of cardiac muscle mitochondria after coronary ischemia-reperfusion. Conditions: dog; for effect on reduction of mitochondrial glutathione during reperfusion / Glutathione content of cardiac muscle mitochondria, GSH + GSSG, normal area / Glutathione content of cardiac muscle mitochondria, GSH, normal area / Glutathione content of cardiac muscle mitochondria, GSSG, normal area / Glutathione content of cardiac muscle mitochondria, GSH + GSSG, ischemic or reperfused area / Glutathione content of cardiac muscle mitochondria, GSH, ischemic or reperfused area / Glutathione content of cardiac muscle mitochondria, GSSG, ischemic or reperfused area: 10 mg/kg i.v. just before reperfusion; for Glutathione content of cardiac muscle mitochondria, GSH + GSSG, normal area / Glutathione content of cardiac muscle mitochondria, GSH, normal area / Glutathione content of cardiac muscle mitochondria, GSSG, normal area / Glutathione content of cardiac muscle mitochondria, GSH + GSSG, ischemic or reperfused area / Glutathione content of cardiac muscle mitochondria, GSH, ischemic or reperfused area / Glutathione content of cardiac muscle mitochondria, GSSG, ischemic or reperfused area: 2 h ischemia / 1 h reperfusion. The method, then: After anesthetizing 52 adult mongrel dogs of either sex weighing ca. 10 kg by intraperitoneal administration of 50 mg/kg of sodium pentobarbital, breathing tubes were immediately intubated endotracheally and artificial ventilation was continued using a Harvard ventilator. Electrocardiogram electrodes were attached, and monitoring and recording were continued throughout the experiment. Following insertion of cannulas in the right femoral vein and right femoral artery, the cannulas were used for continuous intravenous drip of physiological saline to replenish water or administration of the test preparation, and monitoring of arterial blood pressure, respectively. After performing left thoracotomy in the fourth or fifth intercostal space, the pericardium was torn to expose the heart. Ischemia was induced by ligating the left anterior descending coronary artery immediately distal to the first diagonal branch, while reperfusion was performed by subsequently removing that ligation.
The animals were divided into four groups. Group 1 (n=9) was subjected to ischemia for 2 hours, group 2 (n=17) was subjected to ischemia for 2 hours followed by reperfusion for 1 hour, group 3 (n=10) was subjected to ischemia for 2 hours followed by reperfusion for 1 hour plus intravenous injection of 10 mg/kg of γ-GCE just before reperfusion, and group 4 (n=16) was subjected to 2 hours of ischemia followed by 1 hour of reperfusion plus intravenous injection of 10 mg/kg of reduced glutathione (GSH, control drug) just before reperfusion.
Evaluation of ischemia-reperfusion injury was performed, following completion of ischemia-reperfusion, by measuring (1) glutathione content of mitochondria, and (2) mitochondrial function, and so on, at the ischemic or reperfused area and the normal area of the heart. Mitochondria was obtained by removing the heart immediately after the end of ischemia or reperfusion, washing with cold physiological saline, promptly cutting out the ischemic or reperfused area and the normal area, and immediately performing preparation from the respective area according to the method described by Hatefi, et al. in Arch. Biochem. Biophys., Vol. 94, pp. 148-155, 1961.
The glutathione content of the mitochondria was measured by applying the method described by Tietze in Anal. Biochem., Vol. 27, pp. 502-522, 1969 to the supernatant obtained by immediately adding 1/10 vol of 27.5% (w/v) sulfosalicylic acid dihydrate aqueous solution to the prepared mitochondria suspension followed by protein denaturation and centrifugation. Evaluation of mitochondrial function was performed according to the method described by Sugiyama, et al. in Am. Heart J., Vol. 100, pp. 829-837, 1980, by polarographically measuring respiratory ability using an oxygen electrode and determining the rate of oxygen consumption is state III (St. III O2) and the respiratory control index (RCI).

Assay [2] deals with liver tissue mitochondria. Put plainly: Liver tissue mitochondrial function in liver ischemia-reperfusion. As to conditions: rat, 50 mg/kg i.v. before ischemia, FIGS. 2A and 2B; for effect on recovery of liver mitochondrial function during reperfusion: 1 h reperfusion; for effect on reduction of liver mitochondrial St. III O2 caused by ischemia: 2 h ischemia. Here is the method: Male Wister rats weighing 250-300 g were fasted with free access to water 24 hours before the experiment. Seventy-two rats were divided into three groups of 24 animals each, i.e., the control group, the GSH administration group and the γ-GCE-administration group. Each rat was anesthetized by intraperitoneal administration of 40 mg/0.8 ml/kg of sodium pentobarbital, and the femoral vein was cannulated. In the GSH group and the γ-GCE group, 50 mg/kg of GSH or γ-GCE respectively were administered intravenously. Physiological saline was then infused for volume replacement in each group, as a continuous intravenous infusion at a rate of 0.8 ml/hr with an injection pump throughout the experiment. Thirty minutes after starting injection of physiological saline, the abdomon was opened by a midline incision and the liver hilus was exposed. According to the method described by Hasselgren, et al. in J. Surg. Res., Vol. 34, pp. 409-414, 1984, all vessels to the left and median lobes of the liver, more specifically, hepatic artery, portal vein and the bile duct, were clamped to produce an ischemic state for 2 hours. Since blood vessels to the remaining parts of the liver were not occluded by this method, poral stasis could be avoided which was of special relevance for circulation stability in rats. Thereafter, occlusion of all vessels was released by removing the clamp to allow reperfusion for 1 hour. The abdominal walls were closed during ischemia and reperfusion. […]
Evaluation of ischemia-reperfusion injury was performed by measuring liver tissue (1) mitochondrial function, (2) glutathione concentration, (3) adenine nucleotides concentration, and (4) lipid peroxide concentration, as well as liver tissue derived (5) adenine nucleotides concentration in the hepatic vein immediately after starting reperfusion, and (6) liver cell enzyme activities in the blood after 1 hour of reperfusion. More specifically, the mitochondrial function in (1) was measured according to the method described by Chance, et al. in Adv. […] In addition, the quantitative determination of glutathione in (2) was performed using the same method as Experiment 1 on supernatant obtained by adding 10 vol/g of tissue weight of 2.5% (w/v) sulfosalicylic acid dihydrate aqueous solution to the liver tissue followed by homogenization and centrifugation. In addition, the quantitative determination of adenine nucleotides in (3) was performed by neutralizing the perchloric acid extract of the liver tissue with potassium hydroxide followed by removal of the precipitate and applying to an ion exchange HPLC column according to the method described by Sugino, et al. in J. Chromatogr., Vol. 361, pp. 427-431, 1986. […]

Assay [3] deals with liver ischemia-reperfusion model using rats. Briefly: Glutathione concentration in liver tissue during liver ischemia-reperfusion. As to conditions: rat, 50 mg/kg i.v. The method, then: Male Wister rats weighing 250-300 g were fasted with free access to water 24 hours before the experiment. Seventy-two rats were divided into three groups of 24 animals each, i.e., the control group, the GSH administration group and the γ-GCE-administration group. Each rat was anesthetized by intraperitoneal administration of 40 mg/0.8 ml/kg of sodium pentobarbital, and the femoral vein was cannulated. In the GSH group and the γ-GCE group, 50 mg/kg of GSH or γ-GCE respectively were administered intravenously. Physiological saline was then infused for volume replacement in each group, as a continuous intravenous infusion at a rate of 0.8 ml/hr with an injection pump throughout the experiment. Thirty minutes after starting injection of physiological saline, the abdomon was opened by a midline incision and the liver hilus was exposed. According to the method described by Hasselgren, et al. in J. Surg. Res., Vol. 34, pp. 409-414, 1984, all vessels to the left and median lobes of the liver, more specifically, hepatic artery, portal vein and the bile duct, were clamped to produce an ischemic state for 2 hours. Since blood vessels to the remaining parts of the liver were not occluded by this method, poral stasis could be avoided which was of special relevance for circulation stability in rats. Thereafter, occlusion of all vessels was released by removing the clamp to allow reperfusion for 1 hour. The abdominal walls were closed during ischemia and reperfusion.
Using 18 rats in each group, the livers of 6 animals from each group were removed before ischemia, after 2 hours of ischemia, and after 1 hour of reperfusion, respectively. A portion of the liver from each animal was rapidly frozen in liquid nitrogen and used for measurement of glutathione,adenine nucleotides and lipid peroxide. From the remaining portion of the liver, mitochondria was immediately extracted according to the method described by Hogeboom and Schneider in the J. Biol. Chem., Vol. 172, p. 619, 1948. In other experiments, immediately after starting reperfusion, blood from the hepatic vein was collected using 6 rats from each group. These blood samples were then used to measure leaked adenine nucleotides. In addition, after 1 hour of said reperfusion, blood samples were also drawn, which were then used to measure the activity of the leaked liver cell enzymes.
Evaluation of ischemia-reperfusion injury was performed by measuring liver tissue (1) mitochondrial function, (2) glutathione concentration, (3) adenine nucleotides concentration, and (4) lipid peroxide concentration, as well as liver tissue derived (5) adenine nucleotides concentration in the hepatic vein immediately after starting reperfusion, and (6) liver cell enzyme activities in the blood after 1 hour of reperfusion. More specifically, the mitochondrial function in (1) was measured according to the method described by Chance, et al. in Adv. Enzymol., Vol. 17, p. 65, 1956. In addition, the quantitative determination of glutathione in (2) was performed using the same method as Experiment 1 on supernatant obtained by adding 10 vol/g of tissue weight of 2.5% (w/v) sulfosalicylic acid dihydrate aqueous solution to the liver tissue followed by homogenization and centrifugation. In addition, the quantitative determination of adenine nucleotides in (3) was performed by neutralizing the perchloric acid extract of the liver tissue with potassium hydroxide followed by removal of the precipitate and applying to an ion exchange HPLC column according to the method described by Sugino, et al. in J. Chromatogr., Vol. 361, pp. 427-431, 1986. In addition, the measurement of lipid peroxide in (4) was performed according to the thiobarbiturate method described by Ohkawa, et al. in Anal. Biochem., Vol. 95, p. 351, 1979. […]

SMILES strings stand for the structures.

`N[C@@H](CCC(=O)N[C@@H](CS)C(=O)NCC(=O)O)C(=O)O` [GSH, reduced glutathione, reference compound]: in assay [1], the “effect on reduction of mitochondrial glutathione during reperfusion” value is on record as “no such effects were observed”; the “Glutathione content of cardiac muscle mitochondria, GSH + GSSG, normal area” value was 3.94 ± 0.33; the “Glutathione content of cardiac muscle mitochondria, GSH, normal area” value is 3.67 ± 0.37; the “Glutathione content of cardiac muscle mitochondria, GSSG, normal area” value turned out to be 0.27 ± 0.08. Further, in assay [1], the “Glutathione content of cardiac muscle mitochondria, GSH + GSSG, ischemic or reperfused area” value is listed as 2.44 ± 0.57; the “Glutathione content of cardiac muscle mitochondria, GSH, ischemic or reperfused area” value is reported as 2.17 ± 0.52; the “Glutathione content of cardiac muscle mitochondria, GSSG, ischemic or reperfused area” value is given as 0.27 ± 0.09. In addition, in assay [2], the “effect on recovery of liver mitochondrial function during reperfusion” value is reported as “did not show any protective effects whatsoever” and the “effect on reduction of liver mitochondrial St. III O2 caused by ischemia” value is given as “did not show any protective effects whatsoever”. In assay [3], the “liver glutathione concentration after reperfusion relative to the level prior to ischemia” value is recorded as around 70%; the “Liver tissue glutathione, GSH + GSSG, after 1 hour reperfusion” value is listed as 3.77 ± 0.64 μmol/g of liver wet weight; the “Liver tissue glutathione, GSH, after 1 hour reperfusion” value was 3.40 ± 0.60 μmol/g of liver wet weight; the “Liver tissue glutathione, GSSG, after 1 hour reperfusion” value is recorded as 0.37 ± 0.05 μmol/g of liver wet weight. In assay [3], the “Liver tissue glutathione, GSH + GSSG, after 2 hours ischemia” value was 4.40 ± 0.68 μmol/g of liver wet weight; the “Liver tissue glutathione, GSH, after 2 hours ischemia” value is recorded as 4.35 ± 0.65 μmol/g of liver wet weight; the “Liver tissue glutathione, GSSG, after 2 hours ischemia” value was 0.35 ± 0.04 μmol/g of liver wet weight; the “Liver tissue glutathione, GSH + GSSG, before ischemia” value was 5.29 ± 0.38 μmol/g of liver wet weight. In addition, in assay [3], the “Liver tissue glutathione, GSH, before ischemia” value is 4.91 ± 0.35 μmol/g of liver wet weight and the “Liver tissue glutathione, GSSG, before ischemia” value is given as 0.38 ± 0.06 μmol/g of liver wet weight.
For the molecule `CCOC(=O)[C@H](CS)NC(=O)CC[C@H](N)C(=O)O` [γ-GCE, γ-L-glutamyl-L-cysteine ethyl ester], in assay [1], the “effect on reduction of mitochondrial glutathione during reperfusion” value is reported as “significantly suppress further reduction of glutathione during the reperfusion”; the “Glutathione content of cardiac muscle mitochondria, GSH + GSSG, normal area” value is given as 4.06 ± 0.52; the “Glutathione content of cardiac muscle mitochondria, GSH, normal area” value turned out to be 3.68 ± 0.54; the “Glutathione content of cardiac muscle mitochondria, GSSG, normal area” value came to 0.38 ± 0.09. Besides, in assay [1], the “Glutathione content of cardiac muscle mitochondria, GSH + GSSG, ischemic or reperfused area” value was found to be 3.57 ± 0.46; the “Glutathione content of cardiac muscle mitochondria, GSH, ischemic or reperfused area” value was 3.12 ± 0.40; the “Glutathione content of cardiac muscle mitochondria, GSSG, ischemic or reperfused area” value amounted to 0.45 ± 0.15. The “mitochondrial glutathione levels (GSH, GSH+GSSG) of reperfused area relative to normal area after reperfusion” value in assay [1] (10 mg/kg just before reperfusion) is on record as 85-88%. In addition, in assay [2], the “effect on recovery of liver mitochondrial function during reperfusion” value was “significantly promoted recovery of mitochondrial function during reperfusion” and the “effect on reduction of liver mitochondrial St. III O2 caused by ischemia” value is given as “significantly suppressed reduction of St. III O2 caused by ischemia”. In addition, in assay [3], the “decrease of liver glutathione concentration throughout the experiment” value is reported as “no significant decrease was observed throughout the experiment”; the “Liver tissue glutathione, GSH + GSSG, after 1 hour reperfusion” value is 5.50 ± 0.26 μmol/g of liver wet weight; the “Liver tissue glutathione, GSH, after 1 hour reperfusion” value is 4.97 ± 0.25 μmol/g of liver wet weight; the “Liver tissue glutathione, GSSG, after 1 hour reperfusion” value is 0.54 ± 0.09 μmol/g of liver wet weight. Further, in assay [3], the “Liver tissue glutathione, GSH + GSSG, after 2 hours ischemia” value is 5.87 ± 0.43 μmol/g of liver wet weight; the “Liver tissue glutathione, GSH, after 2 hours ischemia” value is given as 5.48 ± 0.42 μmol/g of liver wet weight; the “Liver tissue glutathione, GSSG, after 2 hours ischemia” value was 0.39 ± 0.01 μmol/g of liver wet weight; the “Liver tissue glutathione, GSH + GSSG, before ischemia” value is reported as 6.04 ± 0.35 μmol/g of liver wet weight. Also, in assay [3], the “Liver tissue glutathione, GSH, before ischemia” value is on record as 5.65 ± 0.30 μmol/g of liver wet weight and the “Liver tissue glutathione, GSSG, before ischemia” value is given as 0.39 ± 0.07 μmol/g of liver wet weight. Besides, the “liver glutathione concentration compared with control group or GSH administration group” value in assay [3] (throughout the experiment) is reported as “significantly higher”.
